Experimental findings from US20170355959A1, “METHODS FOR MOBILISING POPULATIONS OF STEM CELLS” (Imperial Innovations Limited, priority 2014, published 2017) are described below.

Assay [1] has as its system HSPCs. As to the kind of experiment: Mobilization of HSPCs into peripheral blood (CFU-HPC assay). The class given is in vivo, mice. How it is done: (§1) Mice were administered the β-adrenergic agonists isoproterenol (10 mg/kg i.p.), clenbuterol (5 mg/kg i.p.) and BRL 37344 (10 mg/kg i.p.), the cannabinoid receptor agonists ACEA (10 mg/kg i.p.) and GP1a (5 mg/kg i.p.), or vehicle either on 4 consecutive days or 2 hours prior to the cull. 1 hour after the last injection, mice were administered the CXCR4 antagonist AMD3100 (5 mg/kg i.p.) or vehicle. 1 hour later their blood was collected via cardiac puncture for enumeration of circulating CFU-HPCs and CFU-Fs. Mice were administered murine G-CSF (100 μg/kg i.p.) or vehicle on 4 consecutive days. On day 5, blood was collected via cardiac puncture for enumeration of circulating HSPCs.
(§2) Harvested peripheral blood or perfusate was red blood cell-lysed and 1×10^5 cells were added to tissue culture-treated petri dishes containing 1 ml of Methocult™ (M3434; StemCell Technologies) to select for CFU-HPCs. Cultures were incubated at 37° C. and quantified on day 12. Similarly, 1×10^6 bone marrow cells harvested by bone marrow flush of the hind limb femur were plated for CFU-HPCs.

A further assay relates to CFU-Fs (MSPCs). In words: Mobilization of MSPCs into peripheral blood (CFU-F assay). It counts as in vivo, mice.
Another assay relates to free fatty acids. As to the kind of experiment: Free fatty acid assay in blood plasma. As to conditions: treatment over 4 days. It counts as in vivo, mice. The protocol: as §1
Free fatty acid content in blood plasma was quantified using a serum/plasma fatty acid detection Kit (Zen Bio) and the assay was performed according to the manufacturers' instructions. Data are expressed as μM concentration of free fatty acids.

A further assay concerns HPCs. In words: In situ perfusion of mouse hind limb, CFU-HPCs in perfusate. It counts as in vivo, mice. Particulars: four day pretreatment, b3 adrenergic agonist in combination with FAAH inhibitor. The protocol:
(§3) Mice were administered BRL 37344 (10 mg/kg i.p.) or vehicle on 4 consecutive days. 1 hour after the last injection, the mice were anaesthetized. The femoral vein and artery were exposed and cannulated in situ immediately after the hind limb was isolated by occlusion of the surrounding arteries as previously described (Pitchford et al, 2009; Pitchford et al, 2010). Perfusion buffer was infused via the arterial cannula and removed from the venous cannula using a Minipuls Peristaltic Pump (Anachem). The hind limb was initially infused with AMD3100 (0.1 mM) or vehicle for 10 minutes using an infusion/withdrawal pump (Harvard Instruments) and was further perfused for 50 minutes with perfusion buffer (Pitchford et al, 2010). The perfusate was collected over 60 minutes and then centrifuged and resuspended in DMEM (Gibco) +20% fetal bovine serum for enumeration of CFU-HPCs and CFU-Fs.
as §2

For another assay, the system named is CFU-Fs (MSCs). In words: In situ perfusion of mouse hind limb, CFU-Fs in perfusate. It counts as in vivo, mice. Particulars: four day pretreatment, b3 adrenergic agonist in combination with FAAH inhibitor. The protocol:
as §3
Harvested peripheral blood or perfusate was red blood cell-lysed and 1×10^6 cells were added to tissue culture-treated 6-well plates containing 3 ml of Mesencult™ (05502; StemCell Technologies) to select for CFU-Fs. Similarly, 1×10^6 bone marrow cells harvested by bone marrow flush of the hind limb femur were plated for CFU-Fs. Cultures were incubated at 37° C. and media was changed on day 7. Bone marrow-derived CFU-Fs were enumerated on day 13 and blood- and perfusate-derived CFU-Fs were enumerated on day 21. Blood derived-CFU-Fs were further expanded and assessed for mesenchymal lineage markers by flow cytometry and following CD45 depletion (flow cytometry sorting of CD45 negative for mesenchymal trilineage differentiation (Supplemental Experimental Procedures).

For another assay, the system named is CXCL12. As to the kind of experiment: CXCL12 ELISA of bone marrow supernatant. The class given is in vivo, mice. Particulars: 4 days of treatment, bone marrow 2 hours after final injection. The protocol:
(A) Mice were pretreated with BRL 37344 (β3), G-CSF or vehicle (VEH) once daily on 4 consecutive days. 2 hours after the final BRL 37344 injection or 24 hours after the final G-CSF injection, bone marrow was collected for quantification of CXCL12 levels (n=16 and n=6-8, respectively). (B) Bone marrow cells were collected from naïve mice and were treated in vitro with clenbuterol (β2), BRL 37344 (β3) or vehicle (VEH). CFU-Fs per 10^6 cells are shown (n=6 mice per group). (C) Mice were pre-treated with AM 251, AM 630, BRL 37344 (β3) or vehicle (VEH) once daily on 4 consecutive days. 2 hours after the last injection, bone marrow cells were collected for enumeration of CFU-Fs. CFU-Fs per 10^6 cells are shown (n=6-8 mice per group). (D) CB1 receptor antagonist AM 251 (CB1l, CB2 receptor antagonist AM 630 (CB2l, BRL 37344 (β3) or vehicle. Data represented as mean±SEM. (A) **p<0.01 (unpaired student t-test) and (B-D) *p<0.05, **p<0.01, ***p<0.001 (one-way ANOVA).
CXCL12 content in blood plasma and bone marrow supernatant was quantified using CXCL12 capture (MAB350) and detection (BAF351) antibodies (RnD systems), and the assay was performed according to the manufacturers' instructions. Recombinant mouse CXCL12 (RnD systems) was used to generate a standard curve.

Assay [2] relates to HSPCs. As to the kind of experiment: Mobilization of HSPCs into peripheral blood (CFU-HPC assay). It counts as in vivo. As to conditions: mice pre-treated with 0-30 mg/kg BRL37344 for 4 days.
[3] abbreviates: 2 h versus 4 d pre-treatment, then AMD3100.
Setting [4] is: pre-treated once daily for 4 days, then AMD3100, blood 1 hour later.

As to `C[C@H](Cc1ccc(OCC(=O)O)cc1)NC[C@H](O)c1cccc(Cl)c1` [BRL37344], the “pre-treatment time needed for HSPC mobilization” value with HSPCs [1] (setting [3]) is “required the pre-treatment of mice over 4 days to see this effect”. Also, the “circulating HSPC numbers” value in the assay on HSPCs [1] (setting [4]) is “significantly boosted circulating numbers of HSPCs and CFU-Fs as compared to that observed with isoproterenol and AMD3100 in combination”. The “pre-treatment time needed for CFU-F mobilization” value with CFU-Fs (MSPCs) (setting [3]) is reported as “required the pre-treatment of mice over 4 days to see this effect”. Moreover, in the assay with CFU-Fs (MSPCs) (mouse, in vivo), the “dose dependence of CFU-F mobilization in response to the CXCR4 antagonist” value is “dose response relationship”. Further, the “circulating CFU-Fs” value with CFU-Fs (MSPCs) (setting [4]) is “significantly boosted circulating numbers of HSPCs and CFU-Fs as compared to that observed with isoproterenol and AMD3100 in combination”. Besides, the “FFA levels in plasma” value in the assay with free fatty acids is listed as “an increase”. Moreover, in the assay with HPCs, the “HPC egress from the bone marrow in response to infusion of the CXCR4 antagonist” value is “significantly enhanced both HPC and MSC egress from the bone marrow”. Moreover, in the assay with CFU-Fs (MSCs), the “MSC egress from the bone marrow in response to infusion of the CXCR4 antagonist” value is “significantly enhanced both HPC and MSC egress from the bone marrow”. Moreover, in the assay on CXCL12, the “levels of CXCL12 in the bone marrow” value was “had no effect on levels of CXCL12 in the bone marrow”. In addition, the “dose dependence of HSPC mobilization in response to the CXCR4 antagonist” value in the assay with HSPCs [2] is “dose response relationship”.
